Here are results for one molecule from patent publication US20160074409A1, “Treatment of Skeletal-Related Disorders” (priority 2013, published 2016).

This test concerns MDA-MB-231 breast carcinoma cells. Description: Bone density in bone metastasis model (femoral and tibial X-ray densitometry). In kind it is in vivo, Nude (rnu/rnu) female rats. Conditions: metastatic bone cancer model, MDA-MB-231 cells injected into tibia; Group G5: 90 mg/kg BID PO, N=6; 6 weeks; FIG. 1. As to the method:
Nude (rnu/rnu) female rats were obtained from Charles River (Wilmington, Mass.). The rats were pair-housed in polycarbonate micro-isolator cages lined with autoclaved bedding. Autoclaved reverse osmosis (RO) water and autoclaved standard rat chow were provided ad libitum. Body weights were recorded weekly throughout the course of the studies. Animals were maintained for 6 weeks and euthanized by carbon dioxide inhalation at the end of the experiment. The animals were randomized to study groups by body weight as follows: G1: vehicle BID PO (N=6), G2: 0.04 mg/kg zoledronate QWK IV (N=6), G5: 90 mg/kg Compound of Formula IV BID PO (N=6), and G6: No implantation (N=3).
MDA-MB-231 breast carcinoma cells were propagated by standard tissue culture methods in RPMI media containing 10% fetal bovine serum. Exponentially growing cells were trypsinized and resuspended in phosphate-buffered saline at a concentration of 2.5×10^7 cells/mi. Rats were maintained under isoflurane anesthesia during the tumor injection procedure. […]
Radiographs were taken with rats under general anaesthesia. […] Radiographs were scanned and analysed. […]
Femoral and tibial X-ray densitometry was performed. In brief, bones were X-rayed, the film was scanned and the electronic image then analysed by a real-colour image analysis system. Pixel density was then determined and used as a measure of disease progression.

Take `CC#CC(=O)N1CCCC1c1nc(-c2ccc(C(=O)Nc3ccccn3)cc2)c2c(N)ncnn12` (stereo not shown) [Compound of Formula IV]: the “bone density (femoral and tibial X-ray densitometry, pixel density)” value was “inhibition of the decrease in bone density”.
